Here are results for two substances from PMC3341351, “Down-Regulation of GABAA Receptor via Promiscuity with the Vasoactive Peptide Urotensin II Receptor. Potential Involvement in Astrocyte Plasticity” (PLoS ONE, 2012).

Assay [1] has as its system cultured rat cortical astrocytes. More on the design: method as in PMID 16942596, PMID 20192922. To be noted: ref [41], [42]; cited from earlier work.
The subject of assay [2] is GABAAR co-expressed with UT^HA 351, UT^HA 332 or UT^HA 319. Kind of assay: Patch-clamp of Iso-evoked current in CHO co-expressing GABAAR and shorter truncated UT (UT^HA 351, UT^HA 332, UT^HA 319). Format: cell-based. Conditions: hUII 10^−8 M, 1 min; Iso 10^−4 M, 2 s. From the text: For UT epitope-tagged with HA (UT^HA), or c-myc (UT^c-myc), human UT receptor cDNA inserted into pcDNA3.1 (Ressource Center, MI, USA) was amplified and PCR products were subcloned using the EcoRI and XhoI sites of pCMV-HA or pCMV-c-myc. Mutant UT receptor cDNAs were constructed by oligonucleotide-directed mutagenesis (Expand High Fidelity PCR System; Roche) using the human UT receptor cDNA inserted into pcDNA3.1 as a template. Two sets of forward and reverse oligonucleotides were used (Table S2) to introduce stop codons in frame of Leu370, Phe351, Gly332 and Thr319 (to generate UT371, UT351, UT332 and UT319, respectively). PCR products were subcloned using the EcoRI and XhoI sites of pCMV-HA after digestion by the same restriction enzymes. Mutagenesis was confirmed by automated nucleotide sequencing.
The conventional whole-cell configuration of the patch-clamp technique was used to study the GABA-gated currents in astrocytes and granule neurons, UT stably transfected CHO, CHO-UT, and CHO transiently transfected with diverse variants of UT and GABAAR subunits. After 24-h transfection, cell culture coverslips were placed in a small chamber (1.5 ml) on a stage of a right microscope DMLFSA (Leica, Heidelberg, Germany) and superfused continuously with the following bath solution containing (in mM): NaCl, 150; KCl, 2.5; HEPES, 5; CaCl2, 2; MgCl2, 1; glucose, 10 (pH 7.4 adjusted with NaOH). […]
Background: In patch-clamp work, channel activity is measured electrically.

In the case of “UII: Urotensin II, species not stated at that place (rUII in astrocytes, hUII in CHO and human cells)”, in assay [1], the “Effect on cell proliferation” value is “stimulates cell proliferation”.

“ETPDCFWKYCV (disulfide) [hUII, human urotensin II, synthesized by solid phase methodology]”: the “hUII effect on GABAAR activity with shorter truncated UT forms” value in assay [2] is “totally failed to alter the GABAAR activity”.
